Source: patent US5086042A, “Peptides with sulfate ester groups” (Fisons Corporation, priority 1989, dated 1992)
Residues, ends and D or L forms follow the SMILES beside them.

Tested on: Male Sprague-Dawley rats
Format: in vivo
Conditions: rat, intraperitoneal; for % FEEDING INHIBITION 0.5 hr / % FEEDING INHIBITION 3 hr: 30 μg/kg, vs saline controls; for % FEEDING INHIBITION 0.5 hr / feeding inhibition during the 0.5 hour feeding period / % FEEDING INHIBITION 0.5 hr (values marked *): 0.5 hr feeding period; for % FEEDING INHIBITION 3 hr: IA means inactive; for feeding inhibition during the 0.5 hour feeding period: 0.3 μg/kg; for feeding inhibition during the 3 hour feeding period: 3 μg/kg
Method: The peptides of this invention have the ability to inhibit feeding activity in mammals. As a result they have utility in the prevention and treatment of obesity.
Male Sprague-Dawley rats (weighing 300-350 g) are individually caged and maintained on a 12 hr. light, dark cycle and trained for at least 14 days to feed during a three hr period of the dark cycle but not the 21 hours preceding that three hr period. The day of the study, rats are dosed intraperitoneally with saline (controls) or test compound (dissolved in saline; usually at a concentration of 0.3 to 300 micrograms of test compound per kg of rat weight). Food is introduced 10 minutes after administration of saline or test compound. […] The % feeding inhibition for the 1/2 hr and 3 hr feeding periods obtained by administering a dose of 30 μg/kg of test compound is given in Table 2 for CCK-8 and various compounds of the invention. For example, the % feeding inhibition obtained with CCK-8 (first line of Table 2) was 70% for the 1/2 hr feeding period and 25% for the 3-hour period.

[1] = 300 μg/kg, <10% inhibition at 30 μg/kg

Compound	% FEEDING INHIBITION 0.5 hr	% FEEDING INHIBITION 3 hr (3 hr feeding period)	feeding inhibition during the 0.5 hour feeding period	feeding inhibition during the 3 hour feeding period (3 hr feeding period)	% FEEDING INHIBITION 3 hr (values marked *) (300 μg/kg, 3 hr feeding period, <10% inhibition at 30 μg/kg)	% FEEDING INHIBITION 0.5 hr (values marked *) [1]
CC[C@H](C)[C@H](NC(=O)[C@H](Cc1ccc(OS(=O)(=O)O)cc1)NC(=O)CCC(=O)O)C(=O)NCC(=O)N[C@@H](Cc1c[nH]c2ccccc12)C(=O)N[C@H](C(=O)N[C@@H](CC(=O)O)C(=O)N[C@@H](Cc1ccccc1)C(N)=O)[C@@H](C)CC [Suc-Tyr(SO3 H)-Ile-Gly-Trp-Ile-Asp-Phe-NH2] (HELM PEPTIDE1{[O=C(O)CCC(=O)[*:2]].[O=C([C@H](Cc1ccc(OS(=O)(=O)O)cc1)N[*:1])[*:2]].I.G.W.I.D.F.[am]}$$$$V2.0)	73%	54%				
CSCC[C@H](NC(=O)[C@H](Cc1ccc(OS(=O)(=O)O)cc1)NC(=O)[C@@H](N)CC(=O)O)C(=O)NCC(=O)N[C@@H](Cc1c[nH]c2ccccc12)C(=O)N[C@@H](CCSC)C(=O)N[C@@H](CC(=O)O)C(=O)N[C@@H](Cc1ccc(C)cc1)C(N)=O [H-Asp-Tyr(SO3 H)-Met-Gly-Trp-Met-Asp-Phe(4-Me)-NH2]	57%	18%				
Hpp(SO3 H)-Ahx-Gly-Trp-Ahx-Asp-Phe-NH2	100%	99%	20-72%	50-90%		
iBuOCO-Tyr(SO3 H)-Ahx-Gly-Trp-Ahx-Asp-MePhe-NH2	100%	100%	20-72%	50-90%		
CCNC(=O)[C@H](Cc1ccccc1)NC(=O)[C@H](CC(=O)O)NC(=O)[C@H](CCSC)NC(=O)[C@H](Cc1c[nH]c2ccccc12)NC(=O)CNC(=O)[C@H](CCSC)NC(=O)[C@H](Cc1ccc(OS(=O)(=O)O)cc1)NC(=O)[C@@H](N)CC(=O)O [H-Asp-Tyr(SO3 H)-Met-Gly-Trp-Met-Asp-Phe-NHEt]	16%					
CSCC[C@H](NC(=O)[C@H](Cc1ccc(OS(=O)(=O)O)cc1)NC(=O)[C@@H](N)CC(=O)O)C(=O)NCC(=O)N[C@@H](Cc1c[nH]c2ccccc12)C(=O)N[C@@H](CCSC)C(=O)N[C@H](CC(=O)O)C(=O)N[C@@H](Cc1ccccc1)C(N)=O [H-Asp-Tyr(SO3 H)-Met-Gly-Trp-Met-DAsp-Phe-NH2]	32%				15%	
CSCC[C@H](NC(=O)[C@H](Cc1ccc(OS(=O)(=O)O)cc1)NC(=O)[C@H](N)CC(=O)O)C(=O)NCC(=O)N[C@@H](Cc1c[nH]c2ccccc12)C(=O)N[C@@H](CCSC)C(=O)N[C@@H](CC(=O)O)C(=O)N[C@@H](Cc1ccccc1)C(N)=O [H-DAsp-Tyr(SO3 H)-Met-Gly-Trp-Met-Asp-Phe-NH2]	99%	40%				
CSCC[C@H](NC(=O)[C@H](Cc1ccc(OS(=O)(=O)O)cc1)NC(=O)CCC(=O)O)C(=O)NCC(=O)N[C@@H](Cc1c[nH]c2ccccc12)C(=O)N[C@@H](CCSC)C(=O)N[C@@H](CC(=O)O)C(=O)N[C@@H](Cc1ccccc1)C(N)=O [Suc-Tyr(SO3 H)-Met-Gly-Trp-Met-Asp-Phe-NH2] (HELM PEPTIDE1{[O=C(O)CCC(=O)[*:2]].[O=C([C@H](Cc1ccc(OS(=O)(=O)O)cc1)N[*:1])[*:2]].M.G.W.M.D.F.[am]}$$$$V2.0)	75%	55%				
Hpp(SO3 sH)-Ile-Gly-Trp-Ahx-Asp-MePhe-NH2 [Hpp(SO3 H)-Ile-Gly-Trp-Ahx-Asp-MePhe-NH2]	98%	100%	20-72%	50-90%		
CSCC[C@H](NC(=O)[C@H](Cc1ccc(OS(=O)(=O)O)cc1)NC(=O)C[C@H](N)C(=O)O)C(=O)NCC(=O)N[C@@H](Cc1c[nH]c2ccccc12)C(=O)N[C@@H](CCSC)C(=O)N[C@@H](CC(=O)O)C(=O)N[C@@H](Cc1ccccc1)C(N)=O [H-βAsp-Tyr(SO3 H)-Met-Gly-Trp-Met-Asp-Phe-NH2]	91%	21%				
CSCC[C@H](NC(=O)[C@H](Cc1ccc(OS(=O)(=O)O)cc1)NC(=O)[C@@H](N)CC(=O)O)C(=O)NCC(=O)N[C@@H](Cc1c[nH]c2ccccc12)C(=O)N[C@@H](CCSC)C(=O)N[C@@H](CC(=O)O)C(=O)N[C@@H](Cc1ccc([N+](=O)[O-])cc1)C(N)=O [H-Asp-Tyr(SO3 H)-Met-Gly-Trp-Met-Asp-Phe(4-NO2)-NH2]	43%	17%				
CSCC[C@H](NC(=O)[C@H](Cc1ccc(OS(=O)(=O)O)cc1)NC(=O)[C@@H](N)CC(=O)O)C(=O)NCC(=O)N[C@@H](Cc1ccc2ccccc2c1)C(=O)N[C@@H](CCSC)C(=O)N[C@@H](CC(=O)O)C(=O)N[C@@H](Cc1ccccc1)C(N)=O [H-Asp-Tyr(SO3)-Met-Gly-Nal-Met-Asp-Phe-NH2] (HELM PEPTIDE1{D.[O=C([C@H](Cc1ccc(OS(=O)(=O)O)cc1)N[*:1])[*:2]].M.G.[O=C([C@H](Cc1ccc2ccccc2c1)N[*:1])[*:2]].M.D.F.[am]}$$$$V2.0)						52%
iBuOCO-Tyr(SO3 H)-Ahx-Gly-Trp-Ahx-Asp-Phe-NH2	100%	100%	20-72%	50-90%		
CSCC[C@H](NC(=O)[C@H](Cc1ccc(OS(=O)(=O)O)cc1)NC(=O)[C@@H](N)CC(=O)O)C(=O)NCC(=O)N[C@@H](Cc1c[nH]c2ccccc12)C(=O)N[C@@H](CCSC)C(=O)N[C@@H](CC(N)=O)C(=O)N[C@@H](Cc1ccccc1)C(N)=O [H-Asp-Tyr(SO3 H)-Met-Gly-Trp-Met-Asn-Phe-NH2] (HELM PEPTIDE1{D.[O=C([C@H](Cc1ccc(OS(=O)(=O)O)cc1)N[*:1])[*:2]].M.G.W.M.N.F.[am]}$$$$V2.0)						43%
CSCC[C@H](NC(=O)[C@H](Cc1c[nH]c2ccccc12)NC(=O)CNC(=O)[C@@H](CCSC)NC(=O)[C@H](Cc1ccc(OS(=O)(=O)O)cc1)NC(=O)[C@@H](N)CC(=O)O)C(=O)N[C@@H](CC(=O)O)C(=O)N[C@@H](Cc1ccccc1)C(N)=O [H-Asp-Tyr(SO3 H)-DMet-Gly-Trp-Met-Asp-Phe-NH3]	17%					
